Experimental data as given in patent US6906205B2, “Spiro and dispiro 1,2,4-trioxolane antimalarials” (Medicines for Malaria Venture MMV, priority 2002, dated 2005).
≈ marks a conversion by molar mass, not a printed value.

How the values were obtained:
[1] = test system: P. falciparum NF54 strain (sensitive to standard antimalarials); test: semiautomated microdilution assay, [3H]-hypoxanthine incorporation, NF54 strain; type: cell-based, Plasmodium falciparum; details: NF54 strain, 72 h incubation
Summary of the method: (§1)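 Intraerythrocytic stages from unsynchronised stock cultures are exposed to test compounds in a semiautomated microdilution format, and fifty percent inhibitory concentrations are then fitted by logit regression.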

[2] = test system: ANKA strain of P. berghei; test: single dose STI in vivo screen in infected mice; parameters: species or system Plasmodium berghei; details: for Activity (%) po / Survival (days) po: single 10 mg/kg po in 3% ethanol and 7% Tween 80; for Activity (%) po / Activity (%) sc / Activity (%) SSVpo: mice; for Activity (%) sc / Survival (days) sc: single 10 mg/kg sc in 3% ethanol and 7% Tween 80; for Activity (%) SSVpo: single po dose in standard suspending vehicle (SSV); for Survival (days) po / Survival (days) sc / Survival (days) SSVpo: untreated control 5.6 ± 0.3; for Survival (days) SSVpo: single po dose in SSV
Summary of the method: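 Groups of 3-5 Moro SPF or NMRI mice infected with the ANKA strain of P. berghei received a single dose of trioxolane on day one post-infection. The compound was given in 3% ethanol and 7% Tween 80 or in SSV (0.5% w/v CMC, 0.5% v/v benzyl alcohol, 0.4% v/v Tween 80, 0.9% w/v sodium chloride in water). Antimalarial activity was scored as percent reduction in parasitemia on day three and as survival time versus untreated controls. Survival to day 30 counted as cure.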

[3] = test system: P. falciparum K1 strain (Thailand resistant to chloroquine); test: semiautomated microdilution assay, [3H]-hypoxanthine incorporation, K1 strain; type: cell-based, Plasmodium falciparum; details: K1 strain, 72 h incubation
Summary of the method: as §1

[4] = test system: Schistosoma mansoni adult schistosomes (49-day-old); test: effect on adult schistosomes (49-day-old) in mice; type: in vivo; details: single 400 mg/kg per os
Description: Mice were infected with 100 Schistosoma mansoni cercariae […]. Each group was treated per os with OZ compounds at single doses of 200, 400, and 600 mg/kg. […] All groups were killed 4 weeks after treatment and the liver and intestine were removed and separated. The liver and intestine were compressed and alive male and female worms could be seen and counted.

[5] = percent reduction in parasitemia day 3 post-infection
[6] = percent reduction in parasitemia day 3 post-infection, 10 mg/kg

| SMILES | IC50 (ng/ml) NF54 [1] | Activity (%) po [2, 5] | Activity (%) sc [2, 5] | Activity (%) SSVpo [2, 5] [%] | Survival (days) po [2] | Survival (days) sc [2] | Survival (days) SSVpo [2] [days] | IC50 (ng/ml) K1 [3] | % reduction of adult worms growth at day 49 after per os application of 400 mg/kg, TWR (%) [4] | adult worms at day 49, per os 400 mg/kg, DEAD WORM (%) [4] [%] | Activity (%) po [2, 6] [%] | Activity (%) sc [2, 6] [%] | Survival (days) po ([2]; 10 mg/kg) [days] | Survival (days) sc ([2]; 10 mg/kg) [days] | Activity (%) 3 mg/kg SSV po ([2]; percent reduction in parasitemia day 3 post-infection, single 3 mg/kg po in SSV) [%] | Activity (%) 10 mg/kg SSV po ([2]; percent reduction in parasitemia day 3 post-infection, single 10 mg/kg po in SSV) [%] | Survival (days) 3 mg/kg SSV po ([2]; single 3 mg/kg po in SSV) [days] | Survival (days) 10 mg/kg SSV po ([2]; single 10 mg/kg po in SSV) [days] |
| --- | --- | --- | --- | --- | --- | --- | --- | --- | --- | --- | --- | --- | --- | --- | --- | --- | --- | --- |
| Clc1ccc(C2(c3ccc(Cl)cc3)OOC3(O2)C2CC4CC(C2)CC3C4)cc1 (stereo not shown) [OZ43] | 7.5 ng/mL (≈ 18 nM) | 99.97% | 97% | 18 | 8.9 days | 7.3 days | 5.4 | 11 ng/mL (≈ 26.4 nM) | 1% | 0 |  |  |  |  |  |  |  |  |
| CC(=O)N1CCC2(CC1)OOC1(O2)C2CC3CC(C2)CC1C3 (stereo not shown) [OZ49] | 0.93 ng/mL (≈ 3.03 nM) | 81% | 85% |  | 6.7 days | 7.3 days |  | 0.82 ng/mL (≈ 2.67 nM) | 17% | 10 |  |  |  |  |  |  |  |  |
| O=S1(=O)CCC2(CC1)OOC1(O2)C2CC3CC(C2)CC1C3 (stereo not shown) [OZ50] | 1.2 ng/mL (≈ 3.82 nM) | 77% | 97% | 57 | 7.0 days | 7.3 days | 5.7 | 1.1 ng/mL (≈ 3.5 nM) | 12% | 4 |  |  |  |  |  |  |  |  |
| c1ccc(C2CCC3(CC2)OOC2(O3)C3CCCC2CCC3)cc1 (stereo not shown) [OZ67] | >100/>100 ng/ml | 0/NA/0% | 0/NA/0% |  | 5.0/NA/5.0 days | 5.0/NA/5.0 days |  | >100/>100 ng/ml | 38% | 0 |  |  |  |  |  |  |  |  |
| CC1(C)COC2(CCC3(CC2)OOC2(O3)C3CCCC2CCC3)OC1 (stereo not shown) [OZ68] | 49 ng/mL (≈ 139 nM) | 1% | 6% |  | 5.0 days | 5.3 days |  | 41 ng/mL (≈ 116 nM) | 17% | 0 |  |  |  |  |  |  |  |  |
| O=C(O)C1CCC2(CC1)OOC1(O2)C2CC3CC(C2)CC1C3 (stereo not shown) [OZ72] | 13 ng/mL (≈ 42.2 nM) |  |  |  |  |  |  | 15 ng/mL (≈ 48.6 nM) |  | 10 | 97 | 95 | 7.7 | 6.7 |  |  |  |  |
| OC1(c2ccc(F)cc2)CCC2(CC1)OOC1(O2)C2CC3CC(C2)CC1C3 (stereo not shown) [OZ76] | 3.0 ng/mL (≈ 8.01 nM) | 49% | 94% |  | 6.3 days | 8.0 days |  | 1.7 ng/mL (≈ 4.54 nM) | 32% | 0 |  |  |  |  |  |  |  |  |
| CCS(=O)(=O)N1CCC2(CC1)OOC1(O2)C2CC3CC(C2)CC1C3 (stereo not shown) [OZ79] | 0.81 ng/mL (≈ 2.27 nM) | 85% | 99.94% |  | 7.0 days | 9.3 days |  | 0.38 ng/mL (≈ 1.06 nM) | 4% | 0 |  |  |  |  |  |  |  |  |
| c1ccc(C2(c3ccccn3)OOC3(O2)C2CC4CC(C2)CC3C4)nc1 (stereo not shown) [OZ81] | >100/>100 ng/ml | 0/NA/0% | 0/NA/0% |  | 5.3 days | 5.0 days |  | >100/>100 ng/ml | 28% | 0 |  |  |  |  |  |  |  |  |
| O=C(CO)N1CCC2(CC1)OOC1(O2)C2CC3CC(C2)CC1C3 (stereo not shown) [OZ83] | 0.60 ng/mL (≈ 1.86 nM) | 92% | 99.8% | 78 | 7.0 days | 8.0 days | 6.3 | 0.30 ng/mL (≈ 0.928 nM) | 7% | 19 |  |  |  |  |  |  |  |  |
| O=[N+]([O-])c1cccc(C2(c3cccc([N+](=O)[O-])c3)OOC3(O2)C2CC4CC(C2)CC3C4)c1 (stereo not shown) [OZ105] |  | 16% | 28% | 0 | 5.7 days | 6.3 days | 5.7 | 5.4 ng/mL (≈ 12.3 nM) | 8% | 0 |  |  |  |  |  |  |  |  |
| NC(=O)OC1CCC2(CC1)OOC1(O2)C2CC3CC(C2)CC1C3 (stereo not shown) [OZ107] | 0.30 ng/mL (≈ 0.928 nM) | 70% | 99.74% | 32 | 6.3 days | 8.0 days | 6.3 | 1.0 ng/mL (≈ 3.09 nM) | 26% | 4 |  |  |  |  |  |  |  |  |
| CCN(CC)CC[C@H]1CC[C@]2(CC1)OOC1(O2)C2CC3CC(C2)CC1C3 (stereo partly shown) [OZ126] | 0.50 ng/mL (≈ 1.38 nM) | 55% | 99.44% | 72 | 7.0 days | 8.5 days | 6.7 | 0.20 ng/mL (≈ 0.55 nM) | 0% | 9 |  |  |  |  |  |  |  |  |
| O=C1COC2(CCC3(CC2)OOC2(O3)C3CC4CC(C3)CC2C4)OC1 (stereo not shown) [OZ130] | 0.94 ng/mL (≈ 2.68 nM) | 98.8% | 98.6% | 98.9 | 9.0 days | 7.3 days | 8.0 | 0.62 ng/mL (≈ 1.77 nM) | 0% | 8 |  |  |  |  |  |  |  |  |
| O=C([C@H]1CC[C@]2(CC1)OOC1(O2)C2CC3CC(C2)CC1C3)N1CCN(c2ccccc2)CC1 (stereo partly shown) [OZ140] | 8.2 ng/mL (≈ 18.1 nM) | 0% | 60% | 8 | 6.0 days | 7.0 days | 6.3 | 5.9 ng/mL (≈ 13 nM) | 0% | 3 |  |  |  |  |  |  |  |  |
| O=C(OC[C@H]1CC[C@]2(CC1)OOC1(O2)C2CC3CC(C2)CC1C3)N1CCN(c2ccccc2)CC1 (stereo partly shown) [OZ148] | 16 ng/mL (≈ 33.2 nM) | 38% | 21% | 58 | 7.3 days | 6.3 days | 7.7 | 17 ng/mL (≈ 35.2 nM) | 25% | 0 |  |  |  |  |  |  |  |  |
| OC12CC3CC(C1)C1(OOC4(CCC5(CC4)OCCO5)O1)C(C3)C2 (stereo not shown) [OZ153] | 19 ng/mL (≈ 56.1 nM) |  |  | 23 | 6.3 days |  | 7.0 | 7.7 ng/mL (≈ 22.8 nM) | No alive/dead worm* |  | 15 | 20 |  | 6.3 |  |  |  |  |
| CC1(C)COC(c2ccc([C@H]3CC[C@]4(CC3)OOC3(O4)C4CC5CC(C4)CC3C5)cc2)=N1 (stereo partly shown) [OZ154] | 6.1 ng/mL (≈ 13.9 nM) |  |  | 81 |  |  | 8.7 | 5.0 ng/mL (≈ 11.4 nM) | 58% | 0 | 99.74 | 59 | 14.7 | 7.7 |  |  |  |  |
| O=C([C@H]1CC[C@]2(CC1)OO[C@]1(O2)C2CC3CC(C2)CC1C3)N1CCNCC1 [OZ368] | 0.43 ng/mL (≈ 1.14 nM) |  |  |  |  |  |  | 0.63 ng/mL (≈ 1.67 nM) |  |  |  |  |  |  | 99 | 99.94 | 9.2 | 9.0 |
